Data as given in patent publication EP1781807B1, “FLUORESCENCE-BASED KINETIC DETERMINATION OF TRANSGLUTAMINASE ACTIVITY” (N-Zyme BioTec GmbH, priority 2004, dated 2006).
Where a SMILES comes first, the peptide text is derived from it. [ ]: non-standard residue; d: D form. The star is where a group is joined. X1 = O=[N+]([O-])c1ccc(NCCCCCN*)c([N+](=O)[O-])c1; 2Abz = Nc1ccccc1C(=O)O; Ahx = NCCCCCC(=O)O

Columns and labels:
Type in all cases: biochemical
Faktor XIII [1] = molecular target: T1, Faktor XIII (Homo sapiens, UniProt P00488); assay: Comparison of fluorescence-labelled transglutaminase peptide substrates, kinetic measurement (Beispiel 5); conditions: 900 µl thrombin-containing 50 µM peptide solution + 100 µl Humanplasma
T1 construct: 100 µl humanem Plasma (durch Thrombin aktiviert); from tissue; host or cells: human plasma
T1 sequence (P00488 39-732): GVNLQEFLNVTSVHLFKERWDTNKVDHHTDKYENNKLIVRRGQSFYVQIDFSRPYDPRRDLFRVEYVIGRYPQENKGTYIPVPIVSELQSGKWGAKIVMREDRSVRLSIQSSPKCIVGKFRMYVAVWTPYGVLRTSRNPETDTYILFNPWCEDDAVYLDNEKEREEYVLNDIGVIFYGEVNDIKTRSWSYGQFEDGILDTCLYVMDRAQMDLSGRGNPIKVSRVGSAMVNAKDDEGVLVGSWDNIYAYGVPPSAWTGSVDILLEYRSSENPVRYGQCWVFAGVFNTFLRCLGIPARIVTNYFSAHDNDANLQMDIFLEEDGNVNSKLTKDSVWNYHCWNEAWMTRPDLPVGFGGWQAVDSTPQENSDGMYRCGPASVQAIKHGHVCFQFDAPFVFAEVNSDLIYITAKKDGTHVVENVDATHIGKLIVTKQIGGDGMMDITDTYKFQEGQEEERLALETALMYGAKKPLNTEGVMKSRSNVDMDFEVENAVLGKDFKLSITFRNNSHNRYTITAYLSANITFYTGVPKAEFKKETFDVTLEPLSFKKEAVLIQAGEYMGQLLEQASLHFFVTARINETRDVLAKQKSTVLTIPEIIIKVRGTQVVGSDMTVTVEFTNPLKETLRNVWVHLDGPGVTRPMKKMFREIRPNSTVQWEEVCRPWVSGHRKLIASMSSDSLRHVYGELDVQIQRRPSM
Experimental: Vergleich von Transglutaminasepeptidsubstraten
Für den Vergleich verschiedener mit fluoreszierenden Gruppen markierter Transglutaminasepeptidsubstrate wurden kinetische Messungen unter identischen Bedingungen durchgeführt. Dazu wurden zu 900 µl einer thrombinhaltigen 50 µM Lösung des Peptids 100 µl Humanplasma zugesetzt. Diese Bedingungen entsprechen denen, die bei heutzutage üblichen Faktor XIII - Messungen (wie bei dem Marktführer: Berichrom) zum Einsatz kommen. […] Auch die Verwendung von Abz als Fluorophor (Abz-Ahx-Glu(CAD-DNP)-Gln-Ile-Val, (Parameswaran et al.,
Um die Substrateigenschaften gegenüber den Substraten des Standes der Technik zu verbessern und somit klinisch relevante Messungen zu ermöglichen, wurde ausgehend von Verbindung 1 durch routinemäßiges Experimentieren das Peptidrückgrat so verändert, dass ein Substrat entstand, das durch FXIII schneller umgesetzt werden sollte (DNS-Ahx-Glu(CAD-DNP)-Glu-Gln-Val-Ser-Pro-Leu-Thr-Leu-Leu-Lys, 2).
Gegenüber dem Peptid, das in der Literatur (Kärpäti et al.) beschrieben wird, ist die Verbindung 2 um eine Aminosäure am N-Terminus verkürzt. Dahinter stand die Absicht, die im Stand der Technik bekannte und oben beschriebene fluorogene Teilstruktur zu erhalten. Es ist aber bekannt, dass gerade die Aminsäuren, die der Bindungsstelle von Enzymen direkt benachbart sind, besonders großen Einfluss auf die Substrateigenschaften von Peptiden, bzw. Proteinen haben. Deshalb wurde in einer weiteren Modifikation von Verbindung 1 die Verbindung 3 hergestellt. (DNS-Ahx-Asn-Glu(CAD-DNP)-Glu-Gln-Val-Ser-Pro-Leu-Thr-Leu-Leu-Lys, 3).
Beispielhaft wird dies im Vergleich in Fig. 6 anhand der Reaktion von 100 µl humanem Plasma (durch Thrombin aktiviert) und einer 50 µM Lösung des Peptides Abz-Asn-Glu(CAD-DNP)-Glu-Gln-Val-Ser-Pro-Leu-Thr-Leu-Leu-Lys (Verbindung 2)) gezeigt. Dem Vergleich der Strukturen und der Fluoreszenzdaten ist zu entnehmen, dass diese Wirkung auch für andere Transglutaminasen und andere Peptide Gültigkeit hat.

[2] = molecular target: T2, gereinigte rekombinante humane Transglutaminase 2 (Homo sapiens, UniProt P21980); assay: Selectivity of measurement of different transglutaminases, 2. Ansatz (Beispiel 4); conditions: substrate 50 µM, rhHis6TG2 0,25 µM, 6 % DMSO, Exc. 310 nm, Em. 427 nm, 20 min
T2 construct: His6
T2 sequence (P21980 1-687): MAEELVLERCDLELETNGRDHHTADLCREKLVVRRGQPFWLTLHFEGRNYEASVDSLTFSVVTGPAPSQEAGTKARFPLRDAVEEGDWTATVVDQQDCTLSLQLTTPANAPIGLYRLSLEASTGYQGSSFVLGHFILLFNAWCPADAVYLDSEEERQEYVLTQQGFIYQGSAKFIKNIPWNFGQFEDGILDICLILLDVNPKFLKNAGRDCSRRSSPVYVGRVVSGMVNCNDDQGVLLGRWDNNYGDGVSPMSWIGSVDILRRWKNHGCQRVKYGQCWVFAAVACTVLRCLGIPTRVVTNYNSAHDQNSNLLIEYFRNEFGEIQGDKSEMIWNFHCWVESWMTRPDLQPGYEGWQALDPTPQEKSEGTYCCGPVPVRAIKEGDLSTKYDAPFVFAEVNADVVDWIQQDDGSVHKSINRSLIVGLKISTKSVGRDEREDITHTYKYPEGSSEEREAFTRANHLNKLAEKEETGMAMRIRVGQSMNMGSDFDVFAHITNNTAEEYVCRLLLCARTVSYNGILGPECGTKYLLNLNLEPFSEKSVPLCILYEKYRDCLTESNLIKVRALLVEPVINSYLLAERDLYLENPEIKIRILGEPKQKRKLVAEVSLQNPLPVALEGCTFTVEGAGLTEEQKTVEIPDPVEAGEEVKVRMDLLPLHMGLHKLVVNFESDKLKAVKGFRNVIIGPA
Text: (§1) Selektivität der Messungen verschiedener Transglutaminasen
2. Ansatz: Abz-Asn-Glu(CAD-DNP)-Glu-Gln-Val-Ser-Pro-Leu-Thr-Leu-Leu-Lys (2), Transglutaminase: gereinigte rekombinante humane Transglutaminase 2

FXIII = molecular target: T3, FXIII (Homo sapiens, UniProt P00488); assay: Kinetic measurement of FXIII in plasma (Beispiel 1); conditions: in Gegenwart von 5 mM Glycinethylester, otherwise identical conditions; 100 µl Citratplasma, 20 NIH Units Thrombin, 37°C, Exc. 310 nm, Em. 427 nm
T3 construct: Kinetische Messung von FXIII in Plasmen; from tissue; host or cells: plasma
T3 sequence (P00488 1-732): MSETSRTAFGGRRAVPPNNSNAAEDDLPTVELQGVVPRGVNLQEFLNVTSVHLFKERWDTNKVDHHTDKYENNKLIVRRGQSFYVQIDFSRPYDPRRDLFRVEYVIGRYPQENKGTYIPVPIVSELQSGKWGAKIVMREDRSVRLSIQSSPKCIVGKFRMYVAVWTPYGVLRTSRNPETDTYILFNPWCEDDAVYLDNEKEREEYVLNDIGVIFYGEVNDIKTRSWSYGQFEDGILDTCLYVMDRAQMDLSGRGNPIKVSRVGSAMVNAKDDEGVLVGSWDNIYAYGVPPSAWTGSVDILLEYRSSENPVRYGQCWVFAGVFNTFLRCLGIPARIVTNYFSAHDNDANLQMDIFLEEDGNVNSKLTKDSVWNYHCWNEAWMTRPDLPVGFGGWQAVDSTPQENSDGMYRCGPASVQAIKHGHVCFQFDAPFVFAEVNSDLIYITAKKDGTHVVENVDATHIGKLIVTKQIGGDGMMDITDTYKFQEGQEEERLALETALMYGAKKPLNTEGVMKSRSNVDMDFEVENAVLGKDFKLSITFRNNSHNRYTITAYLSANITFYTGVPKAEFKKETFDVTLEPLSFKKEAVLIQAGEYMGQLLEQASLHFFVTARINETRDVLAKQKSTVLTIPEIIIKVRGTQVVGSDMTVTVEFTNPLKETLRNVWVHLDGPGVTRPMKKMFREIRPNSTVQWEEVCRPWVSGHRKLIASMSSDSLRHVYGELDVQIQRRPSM
Text: Kinetische Messung von FXIII in Plasmen
Substratpeptid: Abz-Asn-Glu(CAD-DNP)-Glu-Gln-Val-Ser-Pro-Leu-Thr-Leu-Leu-Lys (2)
Die Substratsequenz Asn-Gln-Glu-Gln-Val-Ser-Pro-Leu-Thr-Leu-Leu-Lys ist einem natürlichen Substrat des FXIII entnommen und wurde bereits zur kinetischen Messungen von FXIII in der Literatur beschrieben (Kärpäti L. et al., Clin Chem., 46:12, 2000, 1946-55). Durch die erfindungsgemäße Modifikation dieses Peptides kann eine kinetische Messung in Plasmen durchgeführt werden (unterer Graph in Fig. 3). Die Messung wurde in diesem speziellen Fall wie folgt durchgeführt.

Faktor XIII [3] = molecular target: T4, Faktor XIII (Homo sapiens, UniProt P00488); assay: Selectivity of measurement of different transglutaminases, 1. Ansatz (Beispiel 4); conditions: substrate 50 µM, 100 µl Citratplasma, 6 % DMSO, Exc. 310 nm, Em. 427 nm, 20 min
T4 construct: 100 µl Citratplasma; from tissue; host or cells: citrate plasma
T4 sequence (P00488 1-732): T3 sequence (P00488 1-732)
Text: as §1
1. Ansatz: Substratpeptid: Abz-Ala-Pro-Glu(CAD-DNP)-Gln-Glu-Ala (3), Transglutaminase: Faktor XIII

Molecule | Steigerung der Fluoreszenz (Faktor XIII [1]) | further results
2-Aminobenzoyl-L-asparaainyl-N^δ-[N-(2,4-dinitrophenyl)1-5-aminopentyl]-L-glutaminyl-L-glutamyl-L-glutaminyl-L-valinyl-L-serinyl-L-prolinyl-L-leucinyl-L-threoninyl-L-leucinyl-L-leucin-L-lysin [Verbindung 2] | wesentliche Verbesserung der Fluoreszenzsteigerung | Anstieg der Fluoreszenz [2]: Ergebnis: kein Anstieg der Fluoreszenz; Signal (Fluoreszenzänderung) (FXIII): Signal zusätzlich verstärkt
CC[C@H](C)[C@H](NC(=O)[C@H](CCC(N)=O)NC(=O)[C@H](CCC(=O)NCCCCCNc1ccc([N+](=O)[O-])cc1[N+](=O)[O-])NC(=O)CCCCCNC(=O)c1ccccc1N)C(=O)N[C@H](C(=O)O)C(C)C [Abz-Ahx-Glu(CAD-DNP)-Gln-Ile-Val] (H-[2Abz][Ahx]E(X1)QIV-OH) | keine messbare Steigerung der Fluoreszenz | –
C[C@H](NC(=O)[C@H](CCC(=O)O)NC(=O)[C@H](CCC(N)=O)NC(=O)[C@H](CCC(=O)NCCCCCNc1ccc([N+](=O)[O-])cc1[N+](=O)[O-])NC(=O)[C@@H]1CCCN1C(=O)[C@H](C)NC(=O)c1ccccc1N)C(=O)O [Verbindung 3] (H-[2Abz]APE(X1)QEA-OH) | – | Anstieg der Fluoreszenz (Faktor XIII [3]): Ergebnis: kein Anstieg der Fluoreszenz
DNS-Ahx-Asn-Glu(CAD-DNP)-Glu-Gln-Val-Ser-Pro-Leu-Thr-Leu-Leu-Lys | nicht zu dem gewünschten Ergebnis | –
DNS-Ahx-Gln(CAD-DNP)-Glu-lle-Val-OH [Verbindung 1] | keine messbare Steigerung der Fluoreszenz | –
DNS-Ahx-Glu(CAD-DNP)-Glu-Gln-Val-Ser-Pro-Leu-Thr-Leu-Leu-Lys | nicht zu einer Verbesserung | –
